The results in this text go back to ChEMBL document CHEMBL5465560, “Selectivity Literature for EUbOPEN Chemogenomic Library” (2024).

The target in test [1] is Ribosomal protein S6 kinase alpha-6 (Homo sapiens, UniProt Q9UK32). Put plainly: Selectivity interaction (ProQinase) EUB0000171b RPS6KA6.
For test [2], the target named is Myosin light chain kinase, smooth muscle (Homo sapiens, UniProt Q15746). The experiment in a line: Selectivity interaction (ProQinase) EUB0000171b MYLK.
Test [3] concerns the target T1, Dual serine/threonine and tyrosine protein kinase (Homo sapiens) (UniProt Q6XUX3).
T1 sequence (whole entry): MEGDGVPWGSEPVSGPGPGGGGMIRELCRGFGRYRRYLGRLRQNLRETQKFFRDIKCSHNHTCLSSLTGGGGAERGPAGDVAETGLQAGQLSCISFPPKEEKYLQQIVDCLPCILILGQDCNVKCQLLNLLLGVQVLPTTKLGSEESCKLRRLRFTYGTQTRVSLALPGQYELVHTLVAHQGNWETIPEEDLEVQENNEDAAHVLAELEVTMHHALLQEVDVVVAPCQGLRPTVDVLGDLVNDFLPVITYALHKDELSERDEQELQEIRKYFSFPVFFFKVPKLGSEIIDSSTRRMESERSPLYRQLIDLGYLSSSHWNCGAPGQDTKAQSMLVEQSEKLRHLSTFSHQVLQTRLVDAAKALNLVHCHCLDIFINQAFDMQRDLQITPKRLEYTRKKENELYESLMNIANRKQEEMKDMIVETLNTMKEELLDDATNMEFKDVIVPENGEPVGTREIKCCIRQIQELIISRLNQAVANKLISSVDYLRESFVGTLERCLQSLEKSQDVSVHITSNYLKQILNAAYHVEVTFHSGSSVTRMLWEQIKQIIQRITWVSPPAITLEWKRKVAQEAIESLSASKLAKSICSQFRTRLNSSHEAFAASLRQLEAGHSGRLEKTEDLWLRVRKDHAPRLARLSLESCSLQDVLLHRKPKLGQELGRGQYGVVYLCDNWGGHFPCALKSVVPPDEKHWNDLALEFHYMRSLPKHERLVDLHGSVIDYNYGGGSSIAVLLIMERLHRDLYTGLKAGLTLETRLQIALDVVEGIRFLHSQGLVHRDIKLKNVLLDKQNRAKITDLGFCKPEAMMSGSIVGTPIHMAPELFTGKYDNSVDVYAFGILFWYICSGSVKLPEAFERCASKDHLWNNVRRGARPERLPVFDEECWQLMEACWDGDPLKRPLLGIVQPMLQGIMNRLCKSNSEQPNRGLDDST
Put plainly: Selectivity interaction (KinomeScan (DiscoverX)) EUB0001079a DSTYK. The following applies: at 1 µM.

In test [4] the target is Non-receptor tyrosine-protein kinase TYK2 (Homo sapiens, UniProt P29597). The experiment in a line: Selectivity interaction (KinomeScan (DiscoverX)) EUB0000045b TYK2.
Chain of Non-receptor tyrosine-protein kinase TYK2 (P29597 whole entry): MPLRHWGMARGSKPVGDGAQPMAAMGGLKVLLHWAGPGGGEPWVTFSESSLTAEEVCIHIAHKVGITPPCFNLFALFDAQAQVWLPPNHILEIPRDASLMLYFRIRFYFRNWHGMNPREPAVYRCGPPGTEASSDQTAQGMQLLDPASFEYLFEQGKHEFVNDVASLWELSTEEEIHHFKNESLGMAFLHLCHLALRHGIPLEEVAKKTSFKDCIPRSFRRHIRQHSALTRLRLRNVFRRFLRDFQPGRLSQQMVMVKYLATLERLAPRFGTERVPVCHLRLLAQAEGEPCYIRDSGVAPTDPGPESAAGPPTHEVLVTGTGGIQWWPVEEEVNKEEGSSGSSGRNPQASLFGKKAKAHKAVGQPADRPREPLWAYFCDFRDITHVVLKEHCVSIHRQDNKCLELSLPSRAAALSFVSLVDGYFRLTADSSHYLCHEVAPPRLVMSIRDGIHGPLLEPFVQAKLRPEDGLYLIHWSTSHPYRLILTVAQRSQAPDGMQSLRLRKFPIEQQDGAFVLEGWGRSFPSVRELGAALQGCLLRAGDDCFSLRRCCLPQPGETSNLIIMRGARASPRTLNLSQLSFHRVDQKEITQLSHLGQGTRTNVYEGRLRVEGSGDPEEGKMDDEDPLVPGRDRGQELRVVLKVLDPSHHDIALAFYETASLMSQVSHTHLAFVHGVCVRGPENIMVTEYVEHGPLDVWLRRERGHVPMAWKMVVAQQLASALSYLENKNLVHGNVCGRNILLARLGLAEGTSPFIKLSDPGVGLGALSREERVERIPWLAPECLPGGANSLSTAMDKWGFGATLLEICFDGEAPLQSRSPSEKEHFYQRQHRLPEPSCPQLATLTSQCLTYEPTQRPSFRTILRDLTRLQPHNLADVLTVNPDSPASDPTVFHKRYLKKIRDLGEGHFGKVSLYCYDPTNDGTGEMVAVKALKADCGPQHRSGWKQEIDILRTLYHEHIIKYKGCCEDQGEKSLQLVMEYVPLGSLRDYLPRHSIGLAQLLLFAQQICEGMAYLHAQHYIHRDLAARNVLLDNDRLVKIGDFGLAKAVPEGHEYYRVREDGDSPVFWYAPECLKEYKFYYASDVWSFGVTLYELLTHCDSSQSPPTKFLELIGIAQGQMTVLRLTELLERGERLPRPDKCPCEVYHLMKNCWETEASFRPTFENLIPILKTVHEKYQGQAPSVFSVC
For test [5], the target named is T2, Serine/threonine-protein kinase NLK (Homo sapiens) (UniProt Q9UBE8).
T2 sequence (whole entry): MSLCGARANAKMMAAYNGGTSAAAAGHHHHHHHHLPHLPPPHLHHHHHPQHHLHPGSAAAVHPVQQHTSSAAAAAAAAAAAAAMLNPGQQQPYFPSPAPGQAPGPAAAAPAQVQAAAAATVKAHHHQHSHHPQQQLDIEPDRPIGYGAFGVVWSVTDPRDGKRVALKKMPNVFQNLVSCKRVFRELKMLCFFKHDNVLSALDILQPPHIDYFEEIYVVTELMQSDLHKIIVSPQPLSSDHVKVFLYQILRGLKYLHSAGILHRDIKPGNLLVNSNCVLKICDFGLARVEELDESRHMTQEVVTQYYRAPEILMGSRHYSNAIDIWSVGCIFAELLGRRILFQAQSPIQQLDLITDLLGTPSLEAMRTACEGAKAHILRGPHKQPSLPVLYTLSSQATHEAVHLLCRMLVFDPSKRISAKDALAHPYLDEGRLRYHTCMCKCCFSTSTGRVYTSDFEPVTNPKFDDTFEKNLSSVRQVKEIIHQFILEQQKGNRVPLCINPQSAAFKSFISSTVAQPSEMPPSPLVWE
The experiment in a line: Selectivity interaction (KinomeScan (DiscoverX)) EUB0001868a NLK. The following applies: at 1 µM.

For test [6], the target named is Tyrosine-protein kinase ABL1 (Homo sapiens, UniProt P00519). Put plainly: Selectivity interaction (Kinase panel (Invitrogen)) EUB0000639a ABL1. The following applies: at 200 nM.
Test [7] deals with Mitogen-activated protein kinase 1 (Homo sapiens, UniProt P28482). Put plainly: Selectivity interaction (ActivX KiNativ screen (kinase selectivity in THP-1 cell lysates)) EUB0000639a MAPK1. The following applies: lysate. In kind it is subcellular.
Chain of Mitogen-activated protein kinase 1 (P28482 whole entry): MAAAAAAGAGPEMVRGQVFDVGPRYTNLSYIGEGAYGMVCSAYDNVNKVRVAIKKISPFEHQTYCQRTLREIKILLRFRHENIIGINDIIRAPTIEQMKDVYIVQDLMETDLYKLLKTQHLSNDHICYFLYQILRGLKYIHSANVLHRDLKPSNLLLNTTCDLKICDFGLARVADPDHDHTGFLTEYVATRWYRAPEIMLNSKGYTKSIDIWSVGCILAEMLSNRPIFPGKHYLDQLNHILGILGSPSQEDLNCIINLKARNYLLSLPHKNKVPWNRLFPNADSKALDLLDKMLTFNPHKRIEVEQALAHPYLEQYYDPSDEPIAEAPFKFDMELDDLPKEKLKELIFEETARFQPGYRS
Test [8] has as its target Cyclin-dependent kinase 2 (Homo sapiens, UniProt P24941). Put plainly: Selectivity interaction (ActivX KiNativ screen (kinase selectivity in THP-1 cell lysates)) EUB0000639a CDK2. In kind it is subcellular. The following applies: lysate, at 0.2 µM.
The target in test [9] is Epidermal growth factor receptor (Homo sapiens, UniProt P00533). Put plainly: Selectivity interaction (Kinase panel (Invitrogen)) EUB0000639a EGFR. The following applies: at 200 nM.
For test [10], the target named is Calcium/calmodulin-dependent protein kinase type II subunit delta (Homo sapiens) (UniProt Q13557). Put plainly: Selectivity interaction (Kinase panel (Invitrogen)) EUB0000639a CAMK2D. The following applies: at 200 nM.
Chain of Calcium/calmodulin-dependent protein kinase type II subunit delta (Homo sapiens) (Q13557 whole entry): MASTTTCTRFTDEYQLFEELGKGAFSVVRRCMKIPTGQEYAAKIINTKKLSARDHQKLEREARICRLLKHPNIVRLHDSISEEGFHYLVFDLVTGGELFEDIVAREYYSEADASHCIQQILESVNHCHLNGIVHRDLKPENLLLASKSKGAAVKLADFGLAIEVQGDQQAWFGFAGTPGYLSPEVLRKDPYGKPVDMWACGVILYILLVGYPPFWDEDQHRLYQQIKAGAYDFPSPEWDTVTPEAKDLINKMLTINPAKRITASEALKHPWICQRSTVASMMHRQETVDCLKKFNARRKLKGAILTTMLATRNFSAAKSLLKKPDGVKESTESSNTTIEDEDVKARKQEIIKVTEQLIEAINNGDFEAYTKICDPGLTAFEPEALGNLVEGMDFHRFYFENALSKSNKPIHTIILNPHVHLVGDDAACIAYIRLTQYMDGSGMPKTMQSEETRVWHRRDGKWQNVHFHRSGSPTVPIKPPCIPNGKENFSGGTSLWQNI
The target in test [11] is Mitogen-activated protein kinase 9 (Homo sapiens, UniProt P45984). Put plainly: Selectivity interaction (ActivX KiNativ screen (kinase selectivity in THP-1 cell lysates)) EUB0000639a MAPK9. In kind it is subcellular. The following applies: lysate, at 0.01 µM.
For test [12], the target named is Maternal embryonic leucine zipper kinase (Homo sapiens) (UniProt Q14680). Put plainly: Selectivity interaction (KinomeScan (DiscoverX)) EUB0000229b MELK. The following applies: at 10 µM.
For test [13], the target named is Ephrin type-A receptor 7 (Homo sapiens) (UniProt Q15375). The experiment in a line: Selectivity interaction (KinomeScan (DiscoverX)) EUB0000595a EPHA7. The following applies: at 10 µM.
Test [14] deals with ALK tyrosine kinase receptor (Homo sapiens, UniProt Q9UM73). Put plainly: Selectivity interaction (KinomeScan (DiscoverX)) EUB0001619a ALK. The following applies: at 1 µM.

Chain of Myosin light chain kinase, smooth muscle (Q15746 whole entry): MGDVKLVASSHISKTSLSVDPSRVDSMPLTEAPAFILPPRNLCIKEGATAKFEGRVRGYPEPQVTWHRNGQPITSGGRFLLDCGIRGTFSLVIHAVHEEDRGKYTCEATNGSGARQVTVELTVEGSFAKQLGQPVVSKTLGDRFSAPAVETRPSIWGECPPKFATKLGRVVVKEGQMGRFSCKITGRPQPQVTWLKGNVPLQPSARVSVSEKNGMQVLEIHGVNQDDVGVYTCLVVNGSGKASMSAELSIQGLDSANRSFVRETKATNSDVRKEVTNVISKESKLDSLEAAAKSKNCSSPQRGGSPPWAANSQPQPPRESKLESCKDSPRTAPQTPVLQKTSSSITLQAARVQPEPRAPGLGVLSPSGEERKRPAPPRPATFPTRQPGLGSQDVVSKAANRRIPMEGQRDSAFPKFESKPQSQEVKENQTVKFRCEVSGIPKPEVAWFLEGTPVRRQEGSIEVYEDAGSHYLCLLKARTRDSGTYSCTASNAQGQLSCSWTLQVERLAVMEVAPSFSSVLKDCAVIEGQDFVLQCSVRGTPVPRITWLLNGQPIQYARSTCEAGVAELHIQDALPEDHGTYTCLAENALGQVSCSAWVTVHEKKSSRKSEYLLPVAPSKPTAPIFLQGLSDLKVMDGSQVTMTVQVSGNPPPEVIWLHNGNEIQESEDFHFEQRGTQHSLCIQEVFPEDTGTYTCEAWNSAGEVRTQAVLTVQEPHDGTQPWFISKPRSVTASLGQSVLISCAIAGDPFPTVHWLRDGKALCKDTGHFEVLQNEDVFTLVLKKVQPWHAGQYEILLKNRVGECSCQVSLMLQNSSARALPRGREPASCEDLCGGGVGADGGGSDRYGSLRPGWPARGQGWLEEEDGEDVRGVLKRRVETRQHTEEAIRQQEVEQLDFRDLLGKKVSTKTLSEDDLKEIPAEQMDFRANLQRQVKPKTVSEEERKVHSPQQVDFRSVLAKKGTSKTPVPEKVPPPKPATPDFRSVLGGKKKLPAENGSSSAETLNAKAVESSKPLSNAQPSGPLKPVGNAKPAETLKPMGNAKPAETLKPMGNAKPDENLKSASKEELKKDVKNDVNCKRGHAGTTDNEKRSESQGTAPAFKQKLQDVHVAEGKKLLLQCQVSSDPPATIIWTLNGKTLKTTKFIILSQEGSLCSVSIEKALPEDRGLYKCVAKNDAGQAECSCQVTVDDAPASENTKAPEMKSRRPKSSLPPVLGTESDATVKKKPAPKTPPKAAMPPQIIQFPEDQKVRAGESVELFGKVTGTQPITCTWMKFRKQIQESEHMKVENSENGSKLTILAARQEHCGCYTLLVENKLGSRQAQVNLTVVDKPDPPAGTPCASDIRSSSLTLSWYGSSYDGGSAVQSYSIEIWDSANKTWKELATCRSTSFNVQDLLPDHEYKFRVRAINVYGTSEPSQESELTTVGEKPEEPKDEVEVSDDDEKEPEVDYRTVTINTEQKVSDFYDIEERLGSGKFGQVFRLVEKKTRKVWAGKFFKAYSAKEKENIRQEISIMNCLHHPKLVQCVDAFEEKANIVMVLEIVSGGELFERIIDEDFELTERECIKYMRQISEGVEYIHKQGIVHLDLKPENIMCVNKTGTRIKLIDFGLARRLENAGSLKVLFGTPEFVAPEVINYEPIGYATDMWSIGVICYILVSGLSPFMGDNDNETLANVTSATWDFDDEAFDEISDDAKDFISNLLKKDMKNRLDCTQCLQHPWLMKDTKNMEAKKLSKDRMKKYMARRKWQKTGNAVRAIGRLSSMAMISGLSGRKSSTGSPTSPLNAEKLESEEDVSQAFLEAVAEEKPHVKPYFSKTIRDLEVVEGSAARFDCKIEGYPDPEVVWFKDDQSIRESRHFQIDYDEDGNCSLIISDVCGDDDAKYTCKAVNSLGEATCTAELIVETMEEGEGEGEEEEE
Chain of Ribosomal protein S6 kinase alpha-6 (Q9UK32 whole entry): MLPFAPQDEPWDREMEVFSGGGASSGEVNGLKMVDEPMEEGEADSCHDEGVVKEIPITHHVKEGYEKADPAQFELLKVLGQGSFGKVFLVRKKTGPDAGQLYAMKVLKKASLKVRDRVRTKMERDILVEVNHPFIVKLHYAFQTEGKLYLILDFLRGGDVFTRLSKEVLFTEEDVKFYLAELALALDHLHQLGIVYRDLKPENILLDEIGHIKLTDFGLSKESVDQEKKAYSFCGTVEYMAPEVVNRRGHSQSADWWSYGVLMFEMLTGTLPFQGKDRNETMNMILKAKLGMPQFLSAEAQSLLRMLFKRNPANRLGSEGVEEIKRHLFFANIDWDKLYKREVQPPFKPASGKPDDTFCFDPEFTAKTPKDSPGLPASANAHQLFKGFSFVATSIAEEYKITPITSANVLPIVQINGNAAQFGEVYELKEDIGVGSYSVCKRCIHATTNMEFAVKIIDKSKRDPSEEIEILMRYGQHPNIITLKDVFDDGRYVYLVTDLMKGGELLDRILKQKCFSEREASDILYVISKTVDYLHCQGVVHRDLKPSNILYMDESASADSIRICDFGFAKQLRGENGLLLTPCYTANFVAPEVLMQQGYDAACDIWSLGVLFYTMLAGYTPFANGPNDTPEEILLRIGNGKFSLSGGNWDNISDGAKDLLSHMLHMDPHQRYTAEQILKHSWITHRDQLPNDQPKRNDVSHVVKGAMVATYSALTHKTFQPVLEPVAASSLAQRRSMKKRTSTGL

Take `C=CC(=O)Nc1cccc(C(=O)Nc2ccc(Nc3cc(-c4[nH]c(SC)nc4C)ccn3)cc2)c1`: the % of control in test [1] (at 1 µM) was found to be 88%; in test [1] (at 5 µM), 68%; in test [2] (at 1 µM) it was 84%; in [2] (at 5 µM), 60%.
Take `Nc1cnc(N2CCc3cc(S(=O)(=O)Nc4c(F)cc(Cl)cc4F)cc(N4CCCC4=O)c32)nc1` [TP-020n]: in test [3], the % of control worked out at 100%.
As for `C=CC(=O)Nc1cc(-n2c(=O)ccc3cnc4ccc(-c5ccc(NS(C)(=O)=O)cc5)cc4c32)ccc1C`, the % of control in test [4] (at 1 µM) and in test [4] (at 10 µM) was 100% throughout.
Compound `Cc1cc(-c2ccnc(Nc3cnn(C)c3)n2)ccc1CNC(=O)N1CC(OC(C)C)C1` registered a % of control in test [5] of 46%.
With `CC[C@@H]1[C@H](F)C(=O)N[C@@H]1COc1nccc2cc(C(N)=O)c(OC)cc12` [ZIMLOVISERTIB], the % of inhibition in test [6] was 1.34%; in test [7] (at 0.01 µM), -8.4%; in [7] (at 0.04 µM), -6%; in test [7] (at 0.2 µM), 0.3%; in test [7] (at 1 µM), -16.3%; in test [7] (at 5 µM), -11.6%. Moreover, the % of inhibition was -1% in [8], 17% in [9], 24.9% in [10] and -10% in [11].
Compound `COc1cc(N(C)c2ccnc3ccc(C(F)(F)F)cc23)cc(OC)c1OC` returned a % binding in test [12] of 91%.
As for `COCC(=O)NC/C=C/c1ccc2ncnc(Nc3ccc(Oc4ccc(C)nc4)c(C)c3)c2c1` [CP-724714], the % of control in test [13] was determined as 100%.
In the case of `N#Cc1cccc(-c2c[nH]c3ncnc(N4CCOCC4)c23)c1`, the % of control in test [14] was determined as 100%.
